Reference: the supplement of paper PMC10307832

Experiments:
[1] = compound: C1=CC2=C(C=C(C(=C2N=C1)O)N=NC3=CC4=C(C=C3)C=C(C=C4)S(=O)(=O)O)S(=O)(=O)O + CC(=O)Nc1cccc(-n2c(=O)n(C3CC3)c(=O)c3c(Nc4ccc(I)cc4F)n(C)c(=O)c(C)c32)c1 [Trametinib] (partner 0.02 µM); assay: relative viability (nuclei count vs DMSO), 5 days (fraction); higher = more cells survive
In short: (§1)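 Relative viability was taken as the ratio of nuclei in treated wells to nuclei in vehicle wells. Lung cancer cell lines in 1536-well plates received compounds by pin tool one day after seeding, either one drug alone or a fixed anchor-drug dose plus five library-drug doses (not always all listed) in √10 steps. Nuclei were counted on 4× images after 5 days of treatment, and values are medians of duplicate plates.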

[2] = compound: C1=CC2=C(C=C(C(=C2N=C1)O)N=NC3=CC4=C(C=C3)C=C(C=C4)S(=O)(=O)O)S(=O)(=O)O + NC(=O)Nc1cc(-c2cccc(F)c2)sc1C(=O)N[C@H]1CCCNC1 [AZD7762] (partner 0.2 µM); assay: as above
In short: as §1

| Cell Line | relative viability ([1]; first compound 0.08 µM) | relative viability ([1]; first compound 0.253 µM) | relative viability ([1]; first compound 0.8 µM) | relative viability ([1]; first compound 2.53 µM) | relative viability ([1]; first compound 8 µM) | relative viability ([2]; first compound 0.08 µM) | relative viability ([2]; first compound 0.253 µM) | relative viability ([2]; first compound 0.8 µM) | relative viability ([2]; first compound 2.53 µM) | relative viability ([2]; first compound 8 µM) |
| --- | --- | --- | --- | --- | --- | --- | --- | --- | --- | --- |
| NCI-H647 | 0.584 | 0.429 | 0.426 | 0.54 | 0.518 | 0.473 | 0.321 | 0.513 | 0.471 | 0.345 |
| NCI-H650 | 0.947 | 0.947 | 0.875 | 0.948 | 0.894 | 0.872 | 0.996 | 0.967 | 0.922 | 0.998 |
| NCI-H661 | 0.627 | 0.532 | 0.568 | 0.625 | 0.613 |  |  |  |  |  |
| NCI-H727 | 0.344 | 0.398 | 0.351 | 0.356 | 0.335 | 0.689 | 0.639 | 0.646 | 0.639 | 0.658 |
| NCI-H838 | 0.566 | 0.543 | 0.453 | 0.508 | 0.653 | 1.01 | 0.882 | 0.89 | 0.965 | 0.882 |
| NCI-H1355 | 0.41 | 0.411 | 0.431 | 0.416 | 0.476 | 0.801 | 0.726 | 0.723 | 0.824 | 0.64 |
| NCI-H1395 | 1.07 | 1.02 | 1.02 | 0.911 | 1.02 | 0.383 | 0.404 | 0.395 | 0.411 | 0.358 |
| NCI-H1437 | 0.528 | 0.477 | 0.524 | 0.623 | 0.641 | 1.11 | 1.11 | 1.1 | 1.2 | 1.08 |
| NCI-H1648 |  | 0.57 |  |  | 0.59 |  | 0.712 |  |  | 0.717 |
| NCI-H1650 | 0.672 | 0.547 | 0.512 | 0.682 | 0.433 |  |  |  |  |  |
| NCI-H1651 | 0.799 | 0.839 | 0.832 | 0.848 | 0.744 | 0.501 | 0.49 | 0.474 | 0.489 | 0.437 |
| NCI-H1666 | 0.874 | 0.877 | 0.861 | 0.861 | 0.903 | 0.868 | 0.798 | 0.787 | 0.802 | 0.771 |
| NCI-H1703 |  |  |  |  |  | 0.147 | 0.163 | 0.13 |  | 0.16 |
| NCI-H1734 | 0.728 | 0.654 | 0.687 | 0.72 | 0.694 | 0.633 | 0.558 | 0.566 | 0.527 | 0.566 |
| NCI-H1755 | 0.761 | 0.754 | 0.739 | 0.761 | 0.732 | 0.535 | 0.419 | 0.361 | 0.457 | 0.459 |
| NCI-H1792 | 0.5 | 0.387 | 0.454 | 0.494 | 0.391 | 1 | 0.655 | 0.723 | 0.715 | 0.836 |
| NCI-H1793 | 0.53 | 0.387 | 0.452 | 0.347 | 0.348 | 0.411 | 0.407 | 0.481 | 0.497 | 0.455 |
| NCI-H1915 | 0.268 | 0.299 | 0.288 | 0.301 | 0.28 | 0.735 | 0.706 | 0.661 | 0.688 | 0.679 |
| NCI-H1944 | 0.415 | 0.385 | 0.416 | 0.474 | 0.366 | 0.643 | 0.647 | 0.746 | 0.519 | 0.464 |

| Cell Line | relative viability ([1]; first compound 0.08 µM) | relative viability ([1]; first compound 0.253 µM) | relative viability ([1]; first compound 0.8 µM) | relative viability ([1]; first compound 2.53 µM) | relative viability ([1]; first compound 8 µM) | relative viability ([2]; first compound 0.08 µM) | relative viability ([2]; first compound 0.253 µM) | relative viability ([2]; first compound 0.8 µM) | relative viability ([2]; first compound 2.53 µM) | relative viability ([2]; first compound 8 µM) |
| --- | --- | --- | --- | --- | --- | --- | --- | --- | --- | --- |
| NCI-H1975 | 0.382 | 0.332 | 0.381 | 0.292 | 0.585 | 0.715 | 0.69 | 0.671 | 0.748 | 0.702 |
| NCI-H1993 | 0.49 | 0.465 | 0.575 | 0.539 | 0.504 | 0.906 | 0.712 | 0.702 | 0.845 | 0.832 |
| NCI-H2009 | 0.316 | 0.3 | 0.294 | 0.288 | 0.24 |  |  |  |  |  |
| NCI-H2023 | 0.527 | 0.58 | 0.558 | 0.589 | 0.637 |  |  |  |  |  |
| NCI-H2085 | 0.538 | 0.512 | 0.557 | 0.582 | 0.433 | 0.874 | 1.03 | 0.902 | 0.971 | 0.969 |
| NCI-H2087 | 0.2 | 0.213 | 0.196 | 0.217 | 0.236 | 1.31 | 1.51 | 1.27 | 1.38 | 1.29 |
| NCI-H2126 | 0.568 | 0.539 | 0.56 | 0.606 | 0.555 | 1.05 | 0.971 | 0.941 | 0.939 | 0.994 |
| NCI-H2170 | 1.06 | 0.856 | 0.83 | 0.984 | 0.927 | 1.02 | 1.04 | 0.89 | 1.01 | 0.914 |
| NCI-H2228 | 0.81 | 0.453 | 0.603 | 0.443 | 0.703 |  |  |  |  |  |
| NCI-H2342 | 0.82 | 0.884 | 0.943 | 0.808 | 0.764 | 0.603 | 0.541 | 0.463 | 0.462 | 0.582 |
| NCI-H2347 | 0.316 | 0.303 | 0.279 | 0.262 | 0.316 | 0.838 | 0.734 | 0.846 | 1.01 | 0.705 |
| NCI-H2405 | 0.635 | 0.597 | 0.599 | 0.686 | 0.687 | 0.898 | 0.784 | 0.738 | 0.77 | 0.732 |
| NCI-H3122 | 0.218 | 0.225 | 0.227 | 0.242 | 0.225 | 0.967 | 0.976 | 0.975 | 1.03 | 0.962 |
| PC-3 [JPC-3] | 0.78 | 0.725 | 0.737 | 0.735 | 0.644 | 0.899 | 0.808 | 0.817 | 0.778 | 0.71 |
| PC-14 | 0.743 | 0.688 | 0.782 | 0.838 | 0.69 | 0.353 | 0.294 | 0.305 | 0.375 | 0.328 |
| RERF-LC-KJ | 0.935 | 0.864 | 0.849 | 0.96 | 0.644 | 0.945 | 0.949 | 0.924 | 1.03 | 0.552 |
| SK-LU-1 | 0.681 | 0.509 | 0.517 | 0.499 | 0.672 |  |  |  |  |  |
| SK-MES-1 | 0.514 | 0.54 | 0.587 | 0.585 | 0.548 |  |  |  |  |  |
| SW 1573 | 0.514 | 0.477 | 0.608 | 0.564 | 0.0865 |  |  |  |  |  |
